This assay concerns the target T1, Lysine-specific demethylase 4C (Homo sapiens, UniProt Q9H3R0).
T1 sequence (Q9H3R0 whole entry): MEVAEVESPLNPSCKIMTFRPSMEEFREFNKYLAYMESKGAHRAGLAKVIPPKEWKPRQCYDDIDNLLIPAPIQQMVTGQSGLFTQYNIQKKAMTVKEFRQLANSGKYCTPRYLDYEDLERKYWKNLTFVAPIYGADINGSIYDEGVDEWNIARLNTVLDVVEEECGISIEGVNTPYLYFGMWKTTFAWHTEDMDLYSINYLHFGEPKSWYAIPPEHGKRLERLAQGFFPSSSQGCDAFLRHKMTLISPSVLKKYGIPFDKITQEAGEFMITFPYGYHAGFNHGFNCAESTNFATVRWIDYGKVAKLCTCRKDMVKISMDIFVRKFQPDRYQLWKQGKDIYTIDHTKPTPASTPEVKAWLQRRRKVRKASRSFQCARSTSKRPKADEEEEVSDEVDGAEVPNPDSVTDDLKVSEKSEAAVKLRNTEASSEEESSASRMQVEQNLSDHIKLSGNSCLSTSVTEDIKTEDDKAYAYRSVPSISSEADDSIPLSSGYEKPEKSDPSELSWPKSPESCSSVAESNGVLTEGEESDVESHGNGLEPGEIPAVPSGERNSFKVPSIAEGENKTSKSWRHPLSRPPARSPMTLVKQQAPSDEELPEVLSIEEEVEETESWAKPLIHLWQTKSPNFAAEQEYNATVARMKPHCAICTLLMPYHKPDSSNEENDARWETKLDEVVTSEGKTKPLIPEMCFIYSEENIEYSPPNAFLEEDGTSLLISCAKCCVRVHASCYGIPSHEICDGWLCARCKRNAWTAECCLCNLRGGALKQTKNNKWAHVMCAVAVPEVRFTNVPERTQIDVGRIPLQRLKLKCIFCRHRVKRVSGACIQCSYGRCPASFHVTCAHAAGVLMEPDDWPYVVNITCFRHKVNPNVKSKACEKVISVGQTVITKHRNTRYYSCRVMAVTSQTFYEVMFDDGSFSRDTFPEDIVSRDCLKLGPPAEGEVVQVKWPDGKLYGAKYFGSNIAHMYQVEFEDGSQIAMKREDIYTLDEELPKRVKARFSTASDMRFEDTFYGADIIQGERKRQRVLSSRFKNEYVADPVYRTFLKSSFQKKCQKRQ
The assay can be described thus: JMJD2C Assay: The ability of test compounds to inhibit the activity of JMJD2C was determined in 384-well plate-format under the following reaction conditions: 0.3 nM JMJD2C, 300 nM H3K9me3-biotin labeled peptide (Anaspec cat #64360), 2 μM alpha-ketoglutaric acid in assay buffer of 50 mM HEPES, pH 7.3, 0.005% Brij35, 0.5 mM TCEP, 0.2 mg/ml BSA, 50 μM sodium L-ascorbate, and 2 μM ammonium iron(II) sulfate. Reaction product was determined quantitatively by TR-FRET after the addition of detection reagent Phycolink Streptavidin-allophycocyanin (Prozyme) and Europium-anti-di-methylated histone H3 lysine 9 (H3K9me2) antibody (PerkinElmer) in the presence of 5 mM EDTA in LANCE detection buffer (PerkinElmer) at a final concentration of 50 nM and 1 nM, respectively.The assay reaction was initiated by the following: 2 μl of the mixture of 900 nM H3K9me3-biotin labeled peptide and 6 μM alpha-ketoglutaric acid with 2 μl of 11-point serial diluted inhibitor in 3% DMSO were added to each well of the plate, followed by the addition of 2 μl of 0.9 nM JMJD2C to initiate the reaction. The reaction mixture was incubated at room temperature for 30 min, and terminated by the addition of 6 μl of 5 mM EDTA in LANCE detection buffer containing 100 nM Phycolink Streptavidin-allophycocyanin and 2 nM Europium-anti-H3K9me2 antibody. […]. (TR-FRET usually uses a lanthanide donor and a delayed reading to cut background.)

Structures are written as SMILES. pIC50: −log10 of the molar value.

In general, pIC50 refers to the IC50 on a negative log10 scale, so that one unit is a factor of ten. Consider `CC(C)N1CCN(c2cccc(N(C)c3ccc(Oc4nc(O)c5ccncc5n4)cc3)c2)CC1`, for which the negative-log IC50 (pIC50) is over 7.00.

For the origin of these results see ChEMBL document CHEMBL5726478, “Histone demethylase inhibitors” (2019).
